Results reported in PubChem BioAssay AID262 (DTP/NCI, 2004).
Where “and” joins values, the source holds several entries; their conditions need not be identical. Equal values may be shown once.

System: LX-1 lung xenograft sc, nude mice, tumor weight
Assay: NCI In Vivo Anticancer Drug Screen. Data for tumor model Human Lung LX-1 Xenograft (subcutaneous) in NU/NU Swiss (nude) mice
Conditions: endpoint: optimum tumor weight change, schedule: Q04DX003 (ip), higher = larger tumour
Protocol: The antitumor activity of compounds was measured in mice bearing transplantable tumors. Survival or tumor size were measured and the results are expressed as the measurement made in the treated group (T) divided by the measurement made in the vehicle treated control group (C). The tumor model used in this assay is Human Lung LX-1 Xenograft (subcutaneous) in NU/NU Swiss (nude) mice

In the case of `Cc1c(N)nc([C@H](CC(N)=O)NC[C@H](N)C(N)=O)nc1C(=O)N[C@H](C(=O)N[C@H](C)[C@@H](O)CC(=O)N[C@H](C(=O)NC(O[C@@H]1O[C@@H](C)[C@@H](N)[C@@H](O)[C@H]1O)C(O)c1nc(-c2nc(C(=O)NCCCCN)cs2)cs1)[C@@H](C)O)[C@@H](O[C@@H]1O[C@@H](CO)[C@@H](O)[C@H](O)[C@@H]1O[C@H]1O[C@H](CO)[C@@H](O)[C@H](OC(N)=O)[C@@H]1O)c1c[nH]cn1` (stereo partly specified), the T/C (dose: 2.0 mg/kg/injection, vehicle: saline) is reported as 77 % of control.

With `CO[C@@]12[C@H](COC(N)=O)C3=C(C(=O)C(C)=C(N)C3=O)N1C[C@@H]1N[C@@H]12` the T/C (dose: 1.5 mg/kg/injection, vehicle: saline) was 98 % of control and the T/C (dose: 3.0 mg/kg/injection, vehicle: saline) was 40 % of control.

`Cn1cnc([N+](=O)[O-])c1[Se]c1nc(N)nc2nc[nH]c12` was tested, and the T/C (dose: 25.0 mg/kg/injection, vehicle: water) was 77 % of control, the T/C (dose: 50.0 mg/kg/injection, vehicle: water) was 54 % of control and the T/C (dose: 100.0 mg/kg/injection, vehicle: water) was 49 % of control.

`N=c1nc2n(cc1F)[C@@H]1O[C@H](CO)[C@@H](O)[C@@H]1O2` was tested, and the T/C (dose: 100.0 mg/kg/injection, vehicle: saline) was 67 % of control, the T/C (dose: 200.0 mg/kg/injection, vehicle: saline) was 59 % of control and the T/C (dose: 400.0 mg/kg/injection, vehicle: saline) was 78 % of control. The T/C (dose: 800.0 mg/kg/injection, vehicle: saline) was 72 % of control.

In the case of `CS(=O)(=O)OCCN(CCOS(C)(=O)=O)c1ccc(C=Nc2ccc(-c3csc(COc4ccccc4)n3)cc2)cc1`, the T/C (dose: 100.0 mg/kg/injection, vehicle: Klucel (hydroxypropylcellulose) (HPC)) is reported as 82 % of control.

With `CN(C)N=Nc1cn[nH]c1C(N)=O` the T/C (dose: 50.0 mg/kg/injection, vehicle: Klucel (hydroxypropylcellulose) (HPC)) was 2 % of control, the T/C (dose: 200.0 mg/kg/injection, vehicle: Klucel (hydroxypropylcellulose) (HPC)) was 53 % of control and the T/C (dose: 400.0 mg/kg/injection, vehicle: Klucel (hydroxypropylcellulose) (HPC)) was -43 % of control.

With `O=NN(CCCl)C(=O)NC1CCCCC1` the T/C (dose: 10.0 mg/kg/injection, vehicle: Klucel (hydroxypropylcellulose) (HPC)) was 44 % of control and the T/C (dose: 20.0 mg/kg/injection, vehicle: Klucel (hydroxypropylcellulose) (HPC)) was 32 % of control.

For `N=C(N)Sc1ccccn1`, the T/C (dose: 50.0 mg/kg/injection, vehicle: saline) was 182 % of control.

With `CO[C@H]1C[C@](C)(O)Cc2cc3c(c(O)c21)C(=O)c1c(O)cc2c(c1C3=O)O[C@@H]1O[C@@]2(C)[C@H](O)[C@@H](N(C)C)[C@@H]1O` the T/C (dose: 6.25 mg/kg/injection, vehicle: other) was 53 % of control and the T/C (dose: 12.5 mg/kg/injection, vehicle: other) was 114 % of control.

`N[C@@H](Cc1ccc(N(CCCl)CCCl)cc1)C(=O)O` was tested, and the T/C (dose: 4.0 mg/kg/injection, vehicle: suspension in saline) was 81 % of control and 87 % of control and the T/C (dose: 8.0 mg/kg/injection, vehicle: suspension in saline) was 56 % of control.
